Assay results: patent publication US12416639B2, “Reagents and methods for detecting protein lysine lactylation” (Jingjie PTM Biolab (Hangzhou) Co., Inc, priority 2018, dated 2025)

Tests used:
MCF-7 cells [1] = experiment: Intracellular lactate in MCF-7 cells (lactate colorimetric kit); format: cell-based, human; conditions: 24 hours
Procedure: (§1) Intracellular lactate (a and d) and histone Kla levels (b and c) were measured from MCF-7 cells cultured in different glucose concentrations or different 2-DG concentrations in the presence of 25 mM glucose for 24 hours. Lactate was measured by a lactate colorimetric kit; n=3 biological replicates; statistical significance was determined using one-way ANOVA followed by Sidak's multiple comparisons test. Immunoblots was carried out using acid-extracted histone samples. The pan anti-Kla and anti-Kac immunoblots indicate molecular weights between 10 kD and 15 kD. e, Regulation of glycolysis and lactate production by diverse metabolic modulators. f, Intracellular lactate levels were measured in MCF-7 cells treated with indicated glycolysis modulators for 24 hours. N=3 biological replicates; statistical significance was determined using one-way ANOVA followed by Dunnett's multiple comparisons test. g-i, Immunoblots of acid extracted histones (Rotenone and DCA) or whole cell lysates (Oxamate) from MCF-7 cells in response to different glycolysis modulators. j, Intracellular lactate levels were measured in MCF-7 cells in response to hypoxia. N=4 biological replicates; statistical significance was determined using unpaired t test (Two-tailed). k, Immunoblots of acid extracted histones from MCF-7 cells under hypoxia (1% oxygen) for indicated time points. a, d, f, j, Graphs show mean with s.e.m. b, c, g, h, i, k, Data represent three independent experiments. […]

MCF-7 cells [2] = experiment: Histone Kla levels in MCF-7 cells by immunoblot (pan anti-Kla); format: cell-based, human
Procedure: as §1

BMDM cells = experiment: M1 polarization (LPS+IFNγ) of BMDM cells: lactate, histone Kla, gene expression, ChIP-qPCR; format: cell-based, mouse
Procedure: Intracellular lactate levels were measured using a lactate colorimetric kit (a) and global histone Kla levels were measured by immunoblots (b) 24 h-post M1 polarization. c, Gene expression were analyzed by RT-qPCR at indicated time points after M1 polarization. a-c, N=3 biological replicates. d, H3K18la occupancy was analyzed by ChIP-qPCR 24 h-post M1 polarization. Data represent three technical replicates from pooled samples. e-h, Exogeneous lactic acid (25 mM) was added to BMDM cells 4 h post-M1 polarization (LPS+IFNγ), and cells were collected at indicated time points post-M1 polarization for intracellular lactate measurement (e), histone Kla immunoblot analysis (f), gene expression analysis (g) and H3K18la occupancy analysis by ChIP-qPCR (h). e, N=3 biological replicates, f, Data represent three independent experiments. g, RPKM: Reads Per Kilobase of transcript per Million mapped reads (RPKM). N=4 biological replicates. h, Data represent three technical replicates from pooled samples. a, c, d, e, g, h, Graphs show mean with s.e.m; statistical significance was determined using Multiple t tests corrected using Holm-Sidak method (a, c, e, g).
All animal use and experiments performed were approved by Institutional Animal Care and Use Committee (ACUP #72209) at the University of Chicago. Ldha^fl/fl mice (Jackson laboratory, 030112) and LysMcre mice (Jackson laboratory, 004781) were used to generate LysMcre^+/−Ldha^fl/fl and littermate control LysMcre^−/− Ldha^fl/fl mice. The following primers were used for genotyping: Ldha forward: […] (SEQ ID NO: 88) and Ldha reverse: […] (SEQ ID NO: 89). LysMcre: […] (SEQ ID NO: 90), LysM Common: […] (SEQ ID NO: 91) and LysM WT: […] (SEQ ID NO: 92). Macrophages were derived from bone marrow of 8-week male C57BL/6 mice following the published procedure. To induce an M1 or M2 phenotype, BMDM cells were stimulated with 5 ng/ml of LPS and 12 ng/ml of IFNγ or 20 ng/ml of interleukin 4, for 24 hours or the indicated time. To infect BMDM cells with bacteria, overnight cultures of E. coli, A. baumannii, or P. aeruginosa were diluted in RPMI-1640 and added to BMDM cells in 6-well plates at 2 and 20 multiplicity of infection. A control plate was either infected with paraformaldehyde-killed bacteria or treated with 5 ng/mL lipopolysaccharide (LPS) in the absence of bacteria. The plates were centrifuged at 2170 rpm for 30 min to promote infection, followed by a 30 min incubation in a humidified incubator at 37° C. under 5% CO2. To kill extracellular bacteria, the medium overlying the confluent cell monolayer was replaced with fresh media containing gentamicin at 100 μg/mL and the plates were further incubated for 1 h. Following incubation, media were removed from infected cells and replaced with fresh media containing 25 μg/mL of gentamicin. For consistency, LPS-treated cells and cells infected with dead bacteria were also treated with gentamicin. Cells were cultured for 24 h before lysis. Allocation of BMDM cells into different treated groups were randomized and not blinded.
Total RNA was extracted from BMDM cells activated as indicated using a RNeasy Plus Mini Kit (74134, Qiagen, Hilden, Germany). Two to four micrograms of total RNA were used as starting material to prepare libraries using Illumina TruSeq Stranded mRNA Library Prep Kit Set A (RS-122-2101, Illumina, San Diego, CA). The libraries' size was selected by using the Agencourt AMPure XP beads (A63882, Beckman Coulter, Brea, CA), with average size of 400 bp. The libraries were sequenced using Illumina HiSeq 4000 (pair end 50 bp).
Native ChIP was carried out following the published protocol (Cuddapah et al., Cold Spring Harb Protoc 2009, pdb prot5237, doi:10.1101/pdb.prot5237 (2009)) with spiked-in for normalization purpose. Spike-in was carried out according to vendor protocols (#61686, Active motif, Carlsbad, CA). […]

[3] = molecular target: T1, recombinant chromatin (p53- and p300-dependent) (Homo sapiens, UniProt Q09472); experiment: Cell-free recombinant chromatin-templated histone modification and transcription assay; format: biochemical; conditions: acetyl-CoA replaced by L-lactyl-CoA
T1 construct: made in house
Procedure: To examine the potential activity of p300 as a histone Kla writer in cells, we over-expressed p300 in HEK293T cells and observed a modest increase in histone Kla levels. In contrast, p300 deletion in HCT116 and HEK293T cells decreased histone Kla levels.
Purification of recombinant proteins and chromatin assembly were performed as previously described (Tang et al., Cell 154, 297-310, doi:10.1016/j.cell.2013.06.027 (2013)). The chromatin-templated histone modification and transcription assays were as described previously (Tang et al., Cell 154, 297-310, doi:10.1016/j.cell.2013.06.027 (2013)), except that lactyl-CoA was used in place of acetyl-CoA and [α-32P] CTP was used in place of [α-32P]-UTP. The H3KR, H4KR, H2AKR, and H2BKR histone mutants were the same as previously described (Tang et al., Cell 154, 297-310, doi:10.1016/j.cell.2013.06.027 (2013)). Histone modifications were monitored by immunoblot and transcription products were monitored by autoradiography as described (Tang et al., Cell 154, 297-310, doi:10.1016/j.cell.2013.06.027 (2013)).

BMDMs = experiment: U-13C6 glucose labeling of histone Kla and Kac in BMDMs during M1 polarization; format: cell-based, mouse
Text: All animal use and experiments performed were approved by Institutional Animal Care and Use Committee (ACUP #72209) at the University of Chicago. Ldha^fl/fl mice (Jackson laboratory, 030112) and LysMcre mice (Jackson laboratory, 004781) were used to generate LysMcre^+/−Ldha^fl/fl and littermate control LysMcre^−/− Ldha^fl/fl mice. The following primers were used for genotyping: Ldha forward: […] (SEQ ID NO: 88) and Ldha reverse: […] (SEQ ID NO: 89). LysMcre: […] (SEQ ID NO: 90), LysM Common: […] (SEQ ID NO: 91) and LysM WT: […] (SEQ ID NO: 92). Macrophages were derived from bone marrow of 8-week male C57BL/6 mice following the published procedure. To induce an M1 or M2 phenotype, BMDM cells were stimulated with 5 ng/ml of LPS and 12 ng/ml of IFNγ or 20 ng/ml of interleukin 4, for 24 hours or the indicated time. To infect BMDM cells with bacteria, overnight cultures of E. coli, A. baumannii, or P. aeruginosa were diluted in RPMI-1640 and added to BMDM cells in 6-well plates at 2 and 20 multiplicity of infection. […]
The peptide samples were loaded onto a home-made capillary column (10 cm length×[…], 3 μm particle size, Dr. Maisch GmbH, Ammerbuch, Germany) connected to an EASY-nLC 1000 system (Thermo Fisher Scientific, Waltham, MA). […] The eluted peptides were then ionized and analyzed by a Q-Exactive mass spectrometer (Thermo Fisher Scientific, Waltham, MA). […]

MCF-7 cells [4] = experiment: U-13C6 glucose labeling followed by MS/MS of histone Kla and Kac in MCF-7 cells; format: cell-based, human
Procedure: The peptide samples were loaded onto a home-made capillary column (10 cm length×[…], 3 μm particle size, Dr. Maisch GmbH, Ammerbuch, Germany) connected to an EASY-nLC 1000 system (Thermo Fisher Scientific, Waltham, MA). Peptides were separated and eluted with a gradient of 2% to 90% HPLC buffer B (0.1% formic acid in acetonitrile, v/v) in buffer A (0.1% formic acid in water, v/v) at a flow rate of 200 nL/min over 60 min (34 min for coelution studies). The eluted peptides were then ionized and analyzed by a Q-Exactive mass spectrometer (Thermo Fisher Scientific, Waltham, MA). Full MS was acquired in the Orbitrap mass analyzer over the range m/z 300-1400 with a resolution of 70,000 at m/z 200. The 12 most intense ions with charge ≥2 were fragmented with normalized collision energy of 27 and tandem mass spectra were acquired with a mass resolution of 17500 at m/z 200.
MCF-7 cells were cultured in DMEM high glucose media plus 10% FBS. To be labeled by isotopic lactate, cells were treated with 10 mM of ^13C3 sodium L-lactate for 24 hours. To be labeled by isotopic glucose, cells were switched to DMEM No-Glucose media (Gibco) for 24 hours, followed by supplementation with 25 mM of U-^13C6 D-glucose and continued culturing for three passages. Histones were extracted, digested with trypsin, immunoprecipitated using a pan anti-Kla antibody, and analyzed by HPLC/MS/MS as described above.

MCF-7 cells [5] = experiment: Hypoxia-induced lactate production and histone Kla; format: cell-based, human; conditions: hypoxia (1% oxygen); cell line not given
Procedure: as §1, with “hypoxia.” for “hypoxia. N=4 biological replicates; statistical significance was determined using unpaired t test (Two-tailed). k, Immunoblots of acid extracted histones from MCF-7 cells under hypoxia (1% oxygen) for indicated time points. a, d, f, j, Graphs show mean with s.e.m. b, c, g, h, i, k, Data represent three independent experiments.”

[6] = M1 polarization, exogenous lactate
[7] = exogenous lactic acid 25 mM added 4 h post-M1 polarization

T1 sequence (Q09472 whole entry): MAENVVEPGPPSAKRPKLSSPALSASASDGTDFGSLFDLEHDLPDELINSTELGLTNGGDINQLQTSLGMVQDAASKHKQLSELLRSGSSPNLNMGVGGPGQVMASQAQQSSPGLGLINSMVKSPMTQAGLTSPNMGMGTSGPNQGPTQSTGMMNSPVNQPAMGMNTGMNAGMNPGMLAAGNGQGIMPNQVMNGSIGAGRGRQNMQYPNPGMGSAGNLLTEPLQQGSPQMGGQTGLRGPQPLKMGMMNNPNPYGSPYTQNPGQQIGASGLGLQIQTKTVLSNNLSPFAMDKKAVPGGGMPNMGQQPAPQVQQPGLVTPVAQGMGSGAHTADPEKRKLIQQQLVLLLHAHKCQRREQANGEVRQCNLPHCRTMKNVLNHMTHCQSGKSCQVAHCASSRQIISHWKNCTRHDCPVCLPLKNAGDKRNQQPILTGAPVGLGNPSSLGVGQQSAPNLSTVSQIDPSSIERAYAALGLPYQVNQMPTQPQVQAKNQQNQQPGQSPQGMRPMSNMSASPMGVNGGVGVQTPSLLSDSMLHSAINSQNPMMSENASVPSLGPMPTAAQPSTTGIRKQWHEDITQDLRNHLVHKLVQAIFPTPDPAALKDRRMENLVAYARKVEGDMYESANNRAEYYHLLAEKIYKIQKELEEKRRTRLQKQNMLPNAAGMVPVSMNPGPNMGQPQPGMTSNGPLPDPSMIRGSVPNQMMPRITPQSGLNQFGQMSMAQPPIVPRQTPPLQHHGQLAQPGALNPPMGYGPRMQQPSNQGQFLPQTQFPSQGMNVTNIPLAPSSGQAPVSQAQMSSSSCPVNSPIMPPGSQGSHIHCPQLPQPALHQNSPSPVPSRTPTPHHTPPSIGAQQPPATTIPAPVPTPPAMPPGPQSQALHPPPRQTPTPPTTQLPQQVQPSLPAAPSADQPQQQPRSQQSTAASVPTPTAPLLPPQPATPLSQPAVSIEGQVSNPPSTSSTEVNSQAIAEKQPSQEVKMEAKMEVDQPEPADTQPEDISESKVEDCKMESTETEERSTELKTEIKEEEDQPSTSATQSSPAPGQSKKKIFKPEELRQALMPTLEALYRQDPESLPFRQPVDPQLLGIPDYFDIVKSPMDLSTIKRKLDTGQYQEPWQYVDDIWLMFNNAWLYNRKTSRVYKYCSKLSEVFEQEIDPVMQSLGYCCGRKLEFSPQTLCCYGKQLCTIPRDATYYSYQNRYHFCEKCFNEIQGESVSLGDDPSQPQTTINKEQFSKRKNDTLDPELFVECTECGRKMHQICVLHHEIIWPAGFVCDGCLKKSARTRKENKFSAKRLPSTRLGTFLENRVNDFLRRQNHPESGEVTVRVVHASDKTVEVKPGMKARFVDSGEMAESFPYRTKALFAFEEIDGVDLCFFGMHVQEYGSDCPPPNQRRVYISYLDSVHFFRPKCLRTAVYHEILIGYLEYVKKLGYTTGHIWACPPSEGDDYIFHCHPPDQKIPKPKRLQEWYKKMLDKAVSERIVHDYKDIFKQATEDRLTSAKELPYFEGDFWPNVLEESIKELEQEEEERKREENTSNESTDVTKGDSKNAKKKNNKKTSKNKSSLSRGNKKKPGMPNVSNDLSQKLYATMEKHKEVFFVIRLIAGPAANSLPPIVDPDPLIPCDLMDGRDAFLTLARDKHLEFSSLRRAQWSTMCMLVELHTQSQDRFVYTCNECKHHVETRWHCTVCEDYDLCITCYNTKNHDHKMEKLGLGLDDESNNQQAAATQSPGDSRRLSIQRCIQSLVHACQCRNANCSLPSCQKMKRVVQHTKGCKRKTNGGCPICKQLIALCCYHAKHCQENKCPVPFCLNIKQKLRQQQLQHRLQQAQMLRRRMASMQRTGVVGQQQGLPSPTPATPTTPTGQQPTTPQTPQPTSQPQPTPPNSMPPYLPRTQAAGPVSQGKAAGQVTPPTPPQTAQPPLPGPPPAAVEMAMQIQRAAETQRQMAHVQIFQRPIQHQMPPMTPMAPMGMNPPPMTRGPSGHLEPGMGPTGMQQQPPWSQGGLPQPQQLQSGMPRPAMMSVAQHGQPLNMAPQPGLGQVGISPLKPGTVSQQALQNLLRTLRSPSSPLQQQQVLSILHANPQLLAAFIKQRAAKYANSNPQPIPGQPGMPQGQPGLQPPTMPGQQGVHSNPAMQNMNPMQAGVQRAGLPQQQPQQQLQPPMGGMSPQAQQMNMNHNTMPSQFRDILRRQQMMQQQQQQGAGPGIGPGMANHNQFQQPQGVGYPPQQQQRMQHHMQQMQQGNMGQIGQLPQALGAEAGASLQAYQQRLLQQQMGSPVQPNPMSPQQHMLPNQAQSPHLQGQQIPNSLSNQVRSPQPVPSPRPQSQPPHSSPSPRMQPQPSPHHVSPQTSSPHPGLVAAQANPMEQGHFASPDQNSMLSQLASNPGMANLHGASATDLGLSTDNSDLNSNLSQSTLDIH

Molecule: O=CC[C@@H](O)[C@H](O)[C@H](O)CO [2-DG, 2-deoxy-D-glucose]
- intracellular lactate levels / lactate production (MCF-7 cells [1]): decreased
- histone Kla levels (MCF-7 cells [2]): decreased

Molecule: C[C@H](O)C(=O)O [lactate, L-(+)-lactic acid]
- histone Kla levels (MCF-7 cells [2]): elevated in a dose-dependent fashion
- early pro-inflammatory gene expression (BMDM cells; [6]): did not affect
- expression of other M2-like genes, such as Vegfa (BMDM cells; [6]): enhanced
- Arg1 expression (BMDM cells; [7]): induced
- intracellular lactate (BMDM cells; [7]): increased
- histone Kla levels (BMDM cells; exogenous lactic acid 25 mM added 4 h post-M1 polarization, immunoblot): increased
- Kla levels at the Arg1 promoter (BMDM cells; exogenous lactic acid 25 mM, H3K18la ChIP-qPCR): induced

Molecule: C[C@H](O)C(=O)SCCNC(=O)CCNC(=O)[C@H](O)C(C)(C)COP(=O)(O)OP(=O)(O)OC[C@H]1O[C@@H](n2cnc3c(N)ncnc32)[C@H](O)[C@@H]1OP(=O)(O)O [L-lactyl-CoA]
- transcription ([3]; autoradiography): a corresponding effect on transcription
- H3 and H4 lactylation ([3]; immunoblot): robust p53-dependent, p300-mediated H3 and H4 lactylation

Molecule: GNE-140
- 13C incorporation into histone Kla (BMDMs): reduced

Molecule: C=C(C)[C@H]1Cc2c(ccc3c2O[C@@H]2COc4cc(OC)c(OC)cc4[C@@H]2C3=O)O1 [rotenone]
- intracellular lactate levels / lactate production (MCF-7 cells [1]): increased
- histone Kla levels (MCF-7 cells [2]): increased

Molecule: O=C([O-])C(Cl)Cl.[Na+] [DCA, Sodium dichloroacetate]
- intracellular lactate levels / lactate production (MCF-7 cells [1]): decreased
- histone Kla levels (MCF-7 cells [2]): lowered
- incorporation of 13C into histone Kac (MCF-7 cells [4]): but not Kac was decreased
- incorporation of 13C into histone Kla (MCF-7 cells [4]): decreased
- induction of histone Kla by hypoxia (MCF-7 cells [5]): attenuated
- induction of lactate production by hypoxia (MCF-7 cells [5]): attenuated
